Source: US6028195A, “Piperazine derivatives and process for the preparation thereof” (Samjin Pharmaceutical Co., Ltd., priority 1996, dated 2000)
In brackets after ≈: the same amount, converted by molar mass. Read-outs that look alike come from different tables or passages of the source.

Columns and labels:
Assay type in all cases: cell-based
Details in all cases: Homo sapiens
[1] = system: A549 (human non-small lung cell); assay: SRB assay, in vitro antitumor effect against A549
Procedure: (§1) In vitro antitumor effect against human tumor cell lines.
(§2) b. 5×10^3 ~2×10^4 cells were added into each well of 96-well plate and cultured in 5% CO2 incubator, at 37° C., for 24 hours.
(§3) c. Each sample drug was dissolved in a little DMSO and diluted with the used medium to a prescribed concentration for experiments, wherein the final concentration of DMSO was controlled below 0.5%.
(§4) d. Medium of each well cultured for 24 hours as above b. was removed by aspiration. Each 200 μl of drug samples prepared in c. was added into each well and the wells were cultured for 48 hours. Tz(time zero) plates were collected at the point of time drugs were added.
(§5) e. According to the SRB assay method, cell fixing with TCA, staining with 0.4% SRB solution, washing with 1% acetic acid and elution of dye with 10 mM Tris solution were carried out on Tz plates and culture-ended plates, and then, OD values were measured at 520 nm.
(§6) a. Time zero(Tz) value was determined with measuring the SRB protein value at the point of time drugs were added.
(§7) b. Control value(C) was determined with the OD value of an well untreated with drug.
(§8) c. Drug-treated test value(T) was determined with the OD value of drug-treated well.
(§9) d. Effects of drugs were estimated with growth stimulation, net growth inhibition, net killing etc. calculated from Tz, C and T.
(§10) e. If T≥Tz, cellular response function was calculated by 100×(T-Tz)/(C-Tz), and if T<Tz, by 100×(T-Tz)/Tz.

[2] = system: SKOV-3 (human ovarian); assay: SRB assay, in vitro antitumor effect against SKOV-3
Procedure: as §1, §2, §3, §4, §5, §6, §7, §8, §9, §10

[3] = system: SKMEL-2 (human melanoma); assay: SRB assay, in vitro antitumor effect against SKMEL-2
Procedure: as §1, §2, §3, §4, §5, §6, §7, §8, §9, §10

[4] = system: XF 498 (human CNS); assay: SRB assay, in vitro antitumor effect against XF 498
Procedure: as §1, §2, §3, §4, §5, §6, §7, §8, §9, §10

[5] = system: HCT-15 (human colon); assay: SRB assay, in vitro antitumor effect against HCT-15
Procedure: as §1, §2, §3, §4, §5, §6, §7, §8, §9, §10

[6] = A549, 48 hours, read-out: ED50 (the source's name)
[7] = SK-OV-3, 48 hours, read-out: ED50 (the source's name)
[8] = SK-MEL-2, 48 hours, read-out: ED50 (the source's name)
[9] = XF498, XF-498, 48 hours, read-out: ED50 (the source's name)
[10] = HCT 15, 48 hours, read-out: ED50 (the source's name)

SMILES	IC50 [1, 6]	IC50 [2, 7]	IC50 [3, 8]	IC50 [4, 9]	IC50 [5, 10]	IC50 ([1]; A549, 48 h, read-out: ED50)	IC50 ([2]; SK-OV-3, 48 h, read-out: ED50)	IC50 ([3]; SK-MEL-2, 48 h, read-out: ED50)	IC50 ([4]; XF498, 48 h, read-out: ED50)	IC50 ([5]; HCT-15, 48 h, read-out: ED50)
COc1ccc(C)c(N2CCN(C(=O)N(Cc3ccccc3)c3cc(C)c(C)nc3OC)CC2)c1 [Example 142, 1-[N-Benzyl-N-(5,6-dimethyl-2-methoxypyridin-3-yl)aminocarbonyl]-4-(5-methoxy-2-methylphenyl)piperazine]	15 ng/mL (≈ 31.6 nM)	11 ng/mL (≈ 23.2 nM)	21 ng/mL (≈ 44.2 nM)	26 ng/mL (≈ 54.8 nM)	17 ng/mL (≈ 35.8 nM)					
C=Cc1cc(NC(=O)N2CCN(c3cc(F)cc(F)c3)CC2)c(OC)nc1C [Example 75, 1-[(2-Methoxy-6-methyl-5-vinylpyridin-3-yl)aminocarbonyl]-4-(3,5-difluorophenyl)piperazine]	190 ng/mL (≈ 489 nM)	90 ng/mL (≈ 232 nM)	90 ng/mL (≈ 232 nM)	130 ng/mL (≈ 335 nM)	120 ng/mL (≈ 309 nM)					
COc1cc(C)c(C)cc1NC(=S)N1CCN(c2cccc(O)c2)CC1 [Example 206, 1-[(4,5-Dimethyl-2-methoxyphenyl)aminothiocarbonyl]-4-(3-hydroxyphenyl)piperazine]	470 ng/mL (≈ 1270 nM)	540 ng/mL (≈ 1450 nM)	520 ng/mL (≈ 1400 nM)	700 ng/mL (≈ 1880 nM)	380 ng/mL (≈ 1020 nM)					
COc1cc(OC)cc(N2CCN(C(=S)Nc3cc4ccccc4nc3OC)CC2)c1 [Example 109, 1-[(2-Methoxyquinolin-3-yl)aminothiocarbonyl]-4-(3,5-dimethoxyphenyl)piperazine]	470 ng/mL (≈ 1070 nM)	910 ng/mL (≈ 2080 nM)	860 ng/mL (≈ 1960 nM)	530 ng/mL (≈ 1210 nM)	490 ng/mL (≈ 1120 nM)					
COc1cc(C)c(C)cc1NC(=O)N1CCN(c2ccccc2OC)CC1 [Example 183, 1-[(4,5-Dimethyl-2-methoxyphenyl)aminocarbonyl]-4-(2-methoxyphenyl)piperazine]	420 ng/mL (≈ 1140 nM)	2270 ng/mL (≈ 6140 nM)	1170 ng/mL (≈ 3170 nM)	1410 ng/mL (≈ 3820 nM)	2090 ng/mL (≈ 5660 nM)					
CCc1cc(N(C)C(=O)N2CCN(c3cc(OC)cc(OC)c3)CC2)c(OC)nc1C [Example 143, 1-[N-(5-Ethyl-2-methoxy-6-methylpyridin-3-yl)-N-methylaminocarbonyl]-4-(3,5-dimethoxyphenyl)piperazine]	0.4 ng/mL (≈ 0.933 nM)	9.5 ng/mL (≈ 22.2 nM)	12.1 ng/mL (≈ 28.2 nM)	0.9 ng/mL (≈ 2.1 nM)	10.8 ng/mL (≈ 25.2 nM)					
COc1cccc2c1C(=O)c1c(O)c3c(c(O)c1C2=O)C[C@@](O)(C(=O)CO)C[C@@H]3O[C@H]1C[C@H](N)[C@H](O)[C@H](C)O1 [Adriamycin, reference compound]						16.8 ng/mL (≈ 30.9 nM)	17.6 ng/mL (≈ 32.4 nM)	10.8 ng/mL (≈ 19.9 nM)	25 ng/mL (≈ 46 nM)	1670 ng/mL (≈ 3070 nM)
C=C(C)c1ccccc1N1CCN(C(=O)Nc2cc(CC)c(C)nc2OC)CC1 [Example 5, 1-[(5-Ethyl-6-methyl-2-methoxypyridin-3-yl)aminocarbonyl]-4-(2-isopropenylphenyl)piperazine]	710 ng/mL (≈ 1800 nM)	960 ng/mL (≈ 2430 nM)	600 ng/mL (≈ 1520 nM)	> 10000 ng/mL	960 ng/mL (≈ 2430 nM)					
COc1cc(OC)cc(N2CCN(C(=O)N(C)c3cc(C(C)OC)c(C)nc3OC)CC2)c1 (stereo not shown) [Example 157, 1-{N-[2-Methoxy-5-(1-methoxyethyl)-6-methylpyridin-3-yl]-N-methylaminocarbonyl}-4-(3,5-dimethoxyphenyl)piperazine]	0.002 ng/mL (≈ 0.00436 nM)	0.002 ng/mL (≈ 0.00436 nM)	0.043 ng/mL (≈ 0.0938 nM)	0.245 ng/mL (≈ 0.534 nM)	0.211 ng/mL (≈ 0.46 nM)					
COc1nc(C)c(C(C)=O)cc1N(C)C(=O)N1CCN(c2cc(C)cc(C)c2)CC1 [Example 151, 1-[N-(5-Acetyl-2-methoxy-6-methylpyridin-3-yl)-N-methylaminocarbonyl]-4-(3,5-dimethylphenyl)piperazine]	4 ng/mL (≈ 9.74 nM)	8 ng/mL (≈ 19.5 nM)	7 ng/mL (≈ 17.1 nM)	7 ng/mL (≈ 17.1 nM)	37 ng/mL (≈ 90.1 nM)					
COc1cc(OC)cc(N2CCN(C(=O)N(c3cc(C)c(C)nc3OC)C(C)C)CC2)c1 [Example 134, 1-[N-Isopropyl-N-(5,6-dimethyl-2-methoxypyridin-3-yl)aminocarbonyl]-4-(3,5-dimethoxyphenyl)piperazine]	0.9 ng/mL (≈ 2.03 nM)	9.1 ng/mL (≈ 20.6 nM)	8.6 ng/mL (≈ 19.4 nM)	2 ng/mL (≈ 4.52 nM)	6.5 ng/mL (≈ 14.7 nM)					
COc1cc(C)c(C)cc1NC(=O)N1CCN(c2cccc(O)c2)CC1 [Example 179, 1-[(4,5-Dimethyl-2-methoxyphenyl)aminocarbonyl]-4-(3-hydroxylphenyl)piperazine]	1040 ng/mL (≈ 2930 nM)	980 ng/mL (≈ 2760 nM)	720 ng/mL (≈ 2030 nM)	740 ng/mL (≈ 2080 nM)	630 ng/mL (≈ 1770 nM)					
COc1cc(C)c(C)cc1N(C)C(=O)N1CCN(c2cc(C)cc(C)c2)CC1 [Example 191, 1-[N-(4,5-Dimethyl-2-methoxyphenyl)-N-methylaminocarbonyl]-4-(3,5-dimethylphenyl)piperazine]	90 ng/mL (≈ 236 nM)	280 ng/mL (≈ 734 nM)	60 ng/mL (≈ 157 nM)	470 ng/mL (≈ 1230 nM)	400 ng/mL (≈ 1050 nM)					
COc1cc(C)c(C)cc1NC(=S)N1CCN(c2cc(C)cc(C)c2)CC1 [Example 198, 1-[(4,5-Dimethyl-2-methoxyphenyl)aminothiocarbonyl]-4-(3,5-dimethylphenyl)piperazine]	21 ng/mL (≈ 54.8 nM)	68 ng/mL (≈ 177 nM)	8 ng/mL (≈ 20.9 nM)	72 ng/mL (≈ 188 nM)	560 ng/mL (≈ 1460 nM)					
COc1nc2ccccc2cc1NC(=O)N1CCN(c2cccc(Cl)c2)CC1 [Example 88, 1-[(2-Methoxyquinolin-3-yl)aminocarbonyl]-4-(3-chlorophenyl)piperazine]		43 ng/mL (≈ 108 nM)	20 ng/mL (≈ 50.4 nM)	9 ng/mL (≈ 22.7 nM)		14 ng/mL (≈ 35.3 nM)				11 ng/mL (≈ 27.7 nM)
COc1cc(OC)cc(N2CCN(C(=O)N(C)c3cc(C)c(C)cc3OC)CC2)c1 [Example 190, 1-[N-(4,5-Dimethyl-2-methoxyphenyl)-N-methylaminocarbonyl]-4-(3,5-dimethoxyphenyl)piperazine]	4 ng/mL (≈ 9.67 nM)	8 ng/mL (≈ 19.3 nM)	2 ng/mL (≈ 4.84 nM)	443 ng/mL (≈ 1070 nM)	17 ng/mL (≈ 41.1 nM)					
CCC(C)(O)c1cc(N(C)C(=O)N2CCN(c3cc(C)cc(C)c3)CC2)c(OC)nc1C (stereo not shown) [Example 156, 1-{N-[5-(1-Hydroxy-1-methylpropyl)-2-methoxy-6-methylpyridin-3-yl]-N-methylaminocarbonyl}-4-(3,5-dimethylphenyl)piperazine]	60 ng/mL (≈ 136 nM)	100 ng/mL (≈ 227 nM)	90 ng/mL (≈ 204 nM)	60 ng/mL (≈ 136 nM)	70 ng/mL (≈ 159 nM)					
CCc1nc(OC)c(NC(=O)N2CCN(c3cccc(O)c3)CC2)cc1C [Example 14, 1-[(6-Ethyl-2-methoxy-5-methylpyridin-3-yl)aminocarbonyl]-4-(3-hydroxyphenyl)piperazine]	22 ng/mL (≈ 59.4 nM)	20 ng/mL (≈ 54 nM)		160 ng/mL (≈ 432 nM)	7 ng/mL (≈ 18.9 nM)			1 ng/mL (≈ 2.7 nM)		
CCCc1nc(OC)c(NC(=O)N2CCN(c3cccc(O)c3)CC2)cc1C [Example 17, 1-[(2-Methoxy-5-methyl-6-propylpyridin-3-yl)aminocarbonyl]-4-(3-hydroxyphenyl)piperazine]	18 ng/mL (≈ 46.8 nM)	10 ng/mL (≈ 26 nM)	21 ng/mL (≈ 54.6 nM)		8 ng/mL (≈ 20.8 nM)				77 ng/mL (≈ 200 nM)	
CCc1nc(OC)c(N(C)C(=O)N2CCN(c3cc(OC)cc(OC)c3)CC2)cc1C [Example 147, 1-[N-(6-Ethyl-2-methoxy-5-methylpyridin-3-yl)-N-methylaminocarbonyl]-4-(3,5-dimethoxyphenyl)piperazine]	31 ng/mL (≈ 72.3 nM)	92 ng/mL (≈ 215 nM)		466 ng/mL (≈ 1090 nM)	180 ng/mL (≈ 420 nM)			24 ng/mL (≈ 56 nM)		
